Tested on: duplex DNA containing a CC mismatch
Test: Photocleavage of mismatched DNA upon irradiation (competition titration)
Type: biochemical
Conditions: 340-440 nm irradiation
Method: For [RhPt] Conjugate, a single-stranded DNA oligomer with the sequence [NT]. ID NO: 2) (underline denotes the mismatch) was labeled at the 5'-end with [^32P]-ATP and polynucleotide kinase (PNK) at 37° C. for 1 h. The radiolabeled DNA was purified by gel electrophoresis and annealed to its mismatched complement (containing a CC mismatch) by heating to 90° C. in buffer (100 mM NaCl, 20 mM NaPi, pH 7.1), followed by slow cooling to ambient temperature over 3 h, to give a final concentration of 2 μM duplex DNA. Racemic solutions of the metal complex (containing all stereoisomers) were prepared in Milli-Q water over a range of concentrations (100 nM-50 μM). For each sample, 4 μM […] (5 μl), which photocleaves DNA at mismatched sites, 2 μM annealed mismatched duplex DNA (10 μl), and the non-photocleaving competitor complex at various concentrations (5 μl) were combined to give 1 μM […] and 1 μM duplex DNA as the final concentrations. […] The amounts of DNA in each band were analyzed by autoradiography and quantitated by phosphorimagery (ImageQuant) (FIG. 20). […] To assess the binding of the rhodium subunit of RhPt at the CC mismatch, the fraction of cleaved DNA was quantified and expressed as a percentage of the total DNA in each lane and plotted against the log of the concentration of RhPt. […]

Substance	photocleavage of DNA upon irradiation
[Rh(chrysi)(HDPA)(Amal)Pt(DACH]^3+ [RhPt]	does not photocleave DNA
rac-[Rh(bpy)2chrysi]Cl3 [rac-[Rh(bpy)2chrysi]3+]	does photocleave DNA at mismatched sites

Reference: patent publication US9969858B2, “Metalloinsertor conjugates” (CALIFORNIA INSTITUTE OF TECHNOLOGY, priority 2015, dated 2018)
